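Cells were grown in 96-well plates and exposed to each compound for 48 hours at five concentrations; endpoints were interpolated linearly between bracketing concentrations, or set to the highest concentration if not reached. The concentration for 50% growth inhibition is given as GI50.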 Activity calls are given as the source filed them. Rule as the data show it: active = GI50 up to about 1.1 µM and inactive = higher.
Columns and labels:
Assay in all cases: inhibition of tumour cell growth, NCI panel, 48 h
[1] = test system: OVCAR-5
[2] = test system: HL-60
[3] = test system: MDA-MB-231
[4] = test system: SK-MEL-2
[5] = test system: KM12
[6] = test system: SN12C
[7] = test system: EKVX
[8] = test system: CAKI-1
[9] = test system: SNB-75
[10] = test system: Malme-3M
[11] = test system: UACC-257
[12] = test system: U-251
[13] = test system: DU-145
[14] = test system: TK-10
[15] = test system: 786-0
[16] = test system: SF-268
[17] = test system: OVCAR-3
[18] = test system: Hs-578T
[19] = test system: SNB-19

Measured: GI50

COc1ccc2o/c(=N/c3ccccc3)c(C(N)=O)cc2c1
inactive: [1] > 100 µM | [2] > 100 µM | [3] > 53.3 µM | [4] > 100 µM | [5] > 100 µM | [6] > 100 µM | [7] > 25.5 µM | [8] > 71.3 µM | [9] 53.7 µM | [10] > 100 µM | [11] > 100 µM | [12] > 79.1 µM | [13] > 100 µM | [14] > 49.2 µM | [15] > 57.8 µM | [16] 47.3 µM | [17] > 100 µM | [18] 42.9 µM

CCNC(=S)N/N=C/c1cc(OC)ccc1O
inactive: [1] > 100 µM | [2] > 100 µM | [3] > 100 µM | [4] > 100 µM | [19] > 100 µM | [5] 88.1 µM | [6] > 100 µM | [7] 89.1 µM | [9] > 100 µM | [10] > 100 µM | [11] > 100 µM | [12] 61.4 µM | [13] > 100 µM | [14] > 100 µM | [15] 67.1 µM | [16] 8.43 µM | [17] 6.38 µM | [18] > 100 µM

COc1ccccc1NC(=S)N/N=C(/C)c1ccccn1
active: [2] < 0.01 µM | [3] < 0.01 µM | [5] 0.117 µM | [6] 0.178 µM | [7] 0.268 µM | [8] 0.0132 µM | [10] 0.0789 µM | [11] < 0.01 µM | [12] < 0.0172 µM | [14] 0.0644 µM | [15] < 0.0123 µM | [16] < 0.0124 µM | [17] < 0.01 µM
inactive: [4] 7.5 µM | [19] 6.19 µM | [9] 1.45 µM | [13] 1.28 µM | [18] > 37.5 µM

COC(=O)C1=C(C)C=C(N2CCOCC2)C(C(=O)OC)C1c1ccccc1 (configuration not stated)
inactive: [1] > 10 µM | [3] > 10 µM | [4] > 10 µM | [19] > 10 µM | [5] > 10 µM | [6] > 10 µM | [7] > 10 µM | [8] > 10 µM | [9] > 10 µM | [10] > 10 µM | [11] > 10 µM | [12] > 10 µM | [13] > 10 µM | [14] > 10 µM | [15] > 10 µM | [16] > 10 µM | [17] > 10 µM | [18] > 10 µM

CC(=O)OCC1OC(n2c(Br)nc3c2c(=O)n(C)c(=O)n3C)C(OC(C)=O)C1OC(C)=O (configuration not stated)
inactive: [1] > 100 µM | [2] 21.3 µM | [3] > 100 µM | [19] 74.8 µM | [5] 64.9 µM | [6] 79.4 µM | [7] 64.7 µM | [8] > 100 µM | [9] 85.1 µM | [10] > 100 µM | [11] 50.2 µM | [12] 39.8 µM | [13] 38.2 µM | [14] > 100 µM | [15] 89.9 µM | [16] 62.7 µM | [17] 48.1 µM | [18] 45.8 µM

N=c1oc2c(Br)cc(Br)cc2cc1C(=O)Nc1ccccn1
inactive: [1] > 100 µM | [2] 57.5 µM | [3] > 100 µM | [4] 30.1 µM | [19] > 100 µM | [5] 56.5 µM | [6] > 100 µM | [7] > 100 µM | [8] > 100 µM | [9] > 100 µM | [10] 52.2 µM | [11] > 100 µM | [12] 96.6 µM | [13] 81.5 µM | [15] 36.5 µM | [16] 78.9 µM | [17] 32.3 µM | [18] 64.4 µM

O=P1(c2ccccc2)c2ccccc2-c2ccccc21
inactive: [2] 66.1 µM | [3] > 100 µM | [4] > 100 µM | [19] > 100 µM | [5] > 100 µM | [6] > 100 µM | [7] > 100 µM | [8] 81.8 µM | [9] 68.9 µM | [11] > 100 µM | [13] > 100 µM | [14] > 100 µM | [15] > 100 µM | [16] > 100 µM | [17] 71 µM | [18] > 100 µM

CCCC(Sc1nc(N)nc2nc[nH]c12)C(=O)O (configuration not stated)
inactive: [1] 63.1 µM | [2] > 100 µM | [3] > 100 µM | [4] > 100 µM | [19] > 100 µM | [5] > 100 µM | [6] > 100 µM | [8] 41 µM | [9] > 100 µM | [10] > 100 µM | [11] > 100 µM | [12] > 100 µM | [13] 57.9 µM | [14] 26.6 µM | [15] 92.5 µM | [16] 46.8 µM | [17] > 100 µM | [18] > 100 µM
